Assay results from ChEMBL document CHEMBL4308864, “Targeting tyrosine kinase: Development of acridone - pyrrole - oxindole hybrids against human breast cancer” (2019).

How the values were obtained:
Type in all cases: functional
MDA-MB-435 = assay: Growth inhibition of human MDA-MB-435 cells assessed as cell growth at 10^-5 M incubated for 48 hrs by sulforhodamine B assay relative to control; settings: MDA-MB-435, 48 h, read-out: Activity
MOLT-4 = assay: Growth inhibition of human MOLT4 cells assessed as cell growth at 10^-5 M incubated for 48 hrs by sulforhodamine B assay relative to control; settings: MOLT-4, 48 h, read-out: Activity
UACC-62 = assay: Growth inhibition of human UACC62 cells assessed as cell growth at 10^-5 M incubated for 48 hrs by sulforhodamine B assay relative to control; settings: UACC-62, 48 h, read-out: Activity
HOP-62 = assay: Growth inhibition of human HOP62 cells assessed as cell growth at 10^-5 M incubated for 48 hrs by sulforhodamine B assay relative to control; settings: HOP-62, 48 h, read-out: Activity
MCF7 = assay: Growth inhibition of human MCF7 cells at 10^-5 M incubated for 48 hrs by sulforhodamine B assay relative to control; settings: MCF7, 48 h, read-out: GI
HL-60(TB) = assay: Growth inhibition of human HL-60(TB) cells assessed as cell growth at 10^-5 M incubated for 48 hrs by sulforhodamine B assay relative to control; settings: HL-60, 48 h, read-out: Activity
EKVX = assay: Growth inhibition of human EKVX cells assessed as cell growth at 10^-5 M incubated for 48 hrs by sulforhodamine B assay relative to control; settings: read-out: Activity
HCT-116 = assay: Growth inhibition of human HCT116 cells assessed as cell growth at 10^-5 M incubated for 48 hrs by sulforhodamine B assay relative to control; settings: HCT-116, 48 h, read-out: Activity
NCI-H23 = assay: Growth inhibition of human NCI-H23 cells assessed as cell growth at 10^-5 M incubated for 48 hrs by sulforhodamine B assay relative to control; settings: NCI-H23, 48 h, read-out: Activity
A549 = assay: Growth inhibition of human A549/ATCC cells assessed as cell growth at 10^-5 M incubated for 48 hrs by sulforhodamine B assay relative to control; settings: A549, 48 h, read-out: Activity
SW-620 = assay: Growth inhibition of human SW620 cells assessed as cell growth at 10^-5 M incubated for 48 hrs by sulforhodamine B assay relative to control; settings: SW-620, 48 h, read-out: Activity
HT-29 = assay: Growth inhibition of human HT-29 cells assessed as cell growth at 10^-5 M incubated for 48 hrs by sulforhodamine B assay relative to control; settings: HT-29, 48 h, read-out: Activity
NCI-H226 = assay: Growth inhibition of human NCI-H226 cells assessed as cell growth at 10^-5 M incubated for 48 hrs by sulforhodamine B assay relative to control; settings: NCI-H226, 48 h, read-out: Activity
Hs-578T = assay: Growth inhibition of human Hs578T cells assessed as cell growth at 10^-5 M incubated for 48 hrs by sulforhodamine B assay relative to control; settings: read-out: Activity
HCT-15 = assay: Growth inhibition of human HCT15 cells assessed as cell growth at 10^-5 M incubated for 48 hrs by sulforhodamine B assay relative to control; settings: HCT-15, 48 h, read-out: Activity
SK-MEL-28 = assay: Growth inhibition of human SK-MEL-28 cells assessed as cell growth at 10^-5 M incubated for 48 hrs by sulforhodamine B assay relative to control; settings: SK-MEL-28, 48 h, read-out: Activity
RXF 393 = assay: Growth inhibition of human RXF393 cells assessed as cell growth at 10^-5 M incubated for 48 hrs by sulforhodamine B assay relative to control; settings: RXF 393, 48 h, read-out: Activity
786-0 = assay: Growth inhibition of human 786-0 cells assessed as cell growth at 10^-5 M incubated for 48 hrs by sulforhodamine B assay relative to control; settings: 786-0, 48 h, read-out: Activity
SK-MEL-2 = assay: Growth inhibition of human SK-MEL-2 cells assessed as cell growth at 10^-5 M incubated for 48 hrs by sulforhodamine B assay relative to control; settings: SK-MEL-2, 48 h, read-out: Activity
SR = assay: Growth inhibition of human SR cells assessed as cell growth at 10^-5 M incubated for 48 hrs by sulforhodamine B assay relative to control; settings: read-out: Activity
PC-3 = assay: Growth inhibition of human PC3 cells assessed as cell growth at 10^-5 M incubated for 48 hrs by sulforhodamine B assay relative to control; settings: PC-3, 48 h, read-out: Activity
NCI-H522 = assay: Growth inhibition of human NCI-H522 cells assessed as cell growth at 10^-5 M incubated for 48 hrs by sulforhodamine B assay relative to control; settings: NCI-H522, 48 h, read-out: Activity
MDA-MB-468 = assay: Growth inhibition of human MDA-MB-468 cells at 10^-5 M incubated for 48 hrs by sulforhodamine B assay relative to control; settings: MDA-MB-468, 48 h, read-out: GI
ACHN = assay: Growth inhibition of human ACHN cells assessed as cell growth at 10^-5 M incubated for 48 hrs by sulforhodamine B assay relative to control; settings: read-out: Activity
SNB-19 = assay: Growth inhibition of human SNB19 cells assessed as cell growth at 10^-5 M incubated for 48 hrs by sulforhodamine B assay relative to control; settings: SNB-19, 48 h, read-out: Activity
OVCAR-5 = assay: Growth inhibition of human OVCAR5 cells assessed as cell growth at 10^-5 M incubated for 48 hrs by sulforhodamine B assay relative to control; settings: OVCAR-5, 48 h, read-out: Activity
Malme-3M = assay: Growth inhibition of human MALME-3M cells assessed as cell growth at 10^-5 M incubated for 48 hrs by sulforhodamine B assay relative to control; settings: read-out: Activity
SK-MEL-5 = assay: Growth inhibition of human SK-MEL-5 cells assessed as cell growth at 10^-5 M incubated for 48 hrs by sulforhodamine B assay relative to control; settings: SK-MEL-5, 48 h, read-out: Activity

## O=C1/C(=C\c2cccn2CCCCn2c3ccccc3c(=O)c3ccccc32)c2ccccc2N1c1c(Cl)cccc1Cl
MDA-MB-435
  growth at 10 µM: 103%
MOLT-4
  growth at 10 µM: 93.8%
UACC-62
  growth at 10 µM: 82.1%
HOP-62
  growth at 10 µM: 104%
MCF7
  inhibition of growth at 10 µM: 68%
HL-60(TB)
  growth at 10 µM: 106%
EKVX
  growth at 10 µM: 88.8%
HCT-116
  growth at 10 µM: 98.4%
NCI-H23
  growth at 10 µM: 101%
A549
  growth at 10 µM: 93%
SW-620
  growth at 10 µM: 105%
HT-29
  growth at 10 µM: 110%
NCI-H226
  growth at 10 µM: 89.5%
Hs-578T
  growth at 10 µM: 103%
HCT-15
  growth at 10 µM: 83.5%
SK-MEL-28
  growth at 10 µM: 111%
RXF 393
  growth at 10 µM: 97.5%
786-0
  growth at 10 µM: 103%
SK-MEL-2
  growth at 10 µM: 105%
SR
  growth at 10 µM: 87.7%
PC-3
  growth at 10 µM: 78.9%
NCI-H522
  growth at 10 µM: 90%
MDA-MB-468
  inhibition of growth at 10 µM: 28%
ACHN
  growth at 10 µM: 99.5%
SNB-19
  growth at 10 µM: 98.2%
OVCAR-5
  growth at 10 µM: 104%
Malme-3M
  growth at 10 µM: 106%
SK-MEL-5
  growth at 10 µM: 98.7%

## O=C1NC(=O)C(=Cc2cccn2CCCn2c3ccccc3c(=O)c3ccccc32)C(=O)N1
MDA-MB-435
  growth at 10 µM: 104%
MOLT-4
  growth at 10 µM: 93.7%
UACC-62
  growth at 10 µM: 87.1%
HOP-62
  growth at 10 µM: 98.1%
MCF7
  inhibition of growth at 10 µM: 12%
HL-60(TB)
  growth at 10 µM: 94%
EKVX
  growth at 10 µM: 98%
HCT-116
  growth at 10 µM: 86%
NCI-H23
  growth at 10 µM: 104%
A549
  growth at 10 µM: 94.6%
SW-620
  growth at 10 µM: 107%
HT-29
  growth at 10 µM: 99.7%
NCI-H226
  growth at 10 µM: 96.3%
Hs-578T
  growth at 10 µM: 115%
HCT-15
  growth at 10 µM: 96.5%
SK-MEL-28
  growth at 10 µM: 110%
RXF 393
  growth at 10 µM: 95.9%
786-0
  growth at 10 µM: 96.3%
SK-MEL-2
  growth at 10 µM: 109%
SR
  growth at 10 µM: 91.8%
PC-3
  growth at 10 µM: 98.9%
NCI-H522
  growth at 10 µM: 88.6%
MDA-MB-468
  inhibition of growth at 10 µM: 7%
ACHN
  growth at 10 µM: 102%
SNB-19
  growth at 10 µM: 94.2%
OVCAR-5
  growth at 10 µM: 99.9%
Malme-3M
  growth at 10 µM: 114%
SK-MEL-5
  growth at 10 µM: 95.2%

## O=C1NC(=O)C(=Cc2cccn2CCCCCn2c3ccccc3c(=O)c3ccccc32)C(=O)N1
MDA-MB-435
  growth at 10 µM: 97.7%
MOLT-4
  growth at 10 µM: 93.3%
UACC-62
  growth at 10 µM: 90.8%
HOP-62
  growth at 10 µM: 102%
MCF7
  inhibition of growth at 10 µM: 15%
HL-60(TB)
  growth at 10 µM: 92.2%
EKVX
  growth at 10 µM: 105%
HCT-116
  growth at 10 µM: 82.2%
NCI-H23
  growth at 10 µM: 96.3%
A549
  growth at 10 µM: 100%
SW-620
  growth at 10 µM: 105%
HT-29
  growth at 10 µM: 103%
NCI-H226
  growth at 10 µM: 99.2%
Hs-578T
  growth at 10 µM: 106%
HCT-15
  growth at 10 µM: 92.8%
SK-MEL-28
  growth at 10 µM: 111%
RXF 393
  growth at 10 µM: 110%
786-0
  growth at 10 µM: 99%
SK-MEL-2
  growth at 10 µM: 107%
SR
  growth at 10 µM: 86.8%
PC-3
  growth at 10 µM: 91%
NCI-H522
  growth at 10 µM: 90.5%
MDA-MB-468
  inhibition of growth at 10 µM: 0%
ACHN
  growth at 10 µM: 105%
SNB-19
  growth at 10 µM: 101%
OVCAR-5
  growth at 10 µM: 101%
Malme-3M
  growth at 10 µM: 119%
SK-MEL-5
  growth at 10 µM: 98.7%
